# Source: article PMC10097024, “Cytotoxic and Antibacterial Prenylated Acylphloroglucinols from Hypericum olympicum L” (Plants, 2023)
# “And” between values parts separate entries of the source, which are not always exact repeats. Identical values can stand only once. Like-named read-outs stand apart in the source and are kept apart here.
# Legend:
# EA.hy926 = assay: MTT cytotoxicity test; type: cell-based, human; details: Homo sapiens, EA.hy 926, EA.hy926, 72 h exposure
# Excerpt: (§1) The group of human cell lines used in this study were represented by the tumor cell lines MDA-MB (breast carcinoma), EJ (urinary bladder carcinoma), K-562 (chronic myeloid leukemia), HL-60 (acute pre-myeloid leukemia), HL-60/DOX (multi-drug resistant HL-60 cell line, with over expression of MRP-1) and the non-tumorigenic cell lines HEK-293 (embryonic kidney cells) and EA.hy926 (vascular endothelial cells). EJ, HL60 and EA.hy926 were purchased from American Type Culture Collection (ATCC) (Manassas, Virginia). The other cell lines were purchased from the German Collection of Microorganisms and Cell Cultures (DSMZ GmbH, Braunschweig, Germany). HL-60/DOX cell lines were generated by periodically treating HL-60 cells with anthracyclins. The conditions in which the cell culture flasks were maintained were as follows: 37 °C in an incubator “BB 16-Function Line” Heraeus (Kendro, Hanau, Germany) with 5% CO2 humidified atmosphere. The growth medium was 90% RPMI-1640, supplemented with 10% FBS and 2 mM L-glutamine. MDA-MB-231, EJ, HEK-293 and EA.hy926 cells were maintained as adherent monolayer cultures while all the other (leukemic) cell lines were grown as suspension type cultures. Cells were maintained in log phase: the adherent cell lines were subjected to trypsinization 1–2 times a week and the leukemic cell lines were passaged 2–3 times a week by removing of part of the cellular suspension and substituting it with fresh medium.
# (§2) The evaluation of cytotoxic activity was conducted by MTT test as described previously. The median inhibitory concentration (IC50) values which represent the half-maximal concentration values were calculated from sigmoidal concentration–response curves, using non-linear regression analysis (Curve fit, GraphPad Prizm 5.0 software, GraphPad Software Inc., San Diego, CA, USA). The selectivity index was calculated as the ratio of the IC50 of a non-cancerous line (HEK-293 or EA.hy926) and the average IC50 of all chemosensitive tested tumor cell lines (x). Therefore, SI=IC50HEK-293/IC50x . The resistance index (RI) was calculated as the ratio of IC50 of the multi-drug resistant HL-60/DOX cell line and the IC50 of its parent cell line: RI=IC50HL-60/DOX/IC50HL-60 .
# EJ = assay: MTT cytotoxicity test; type: cell-based, human; details: Homo sapiens, 72 h exposure
# Excerpt: as §1, §2
# HEK-293 = assay: MTT cytotoxicity test; type: cell-based, human; details: Homo sapiens, HEK293, HEK-293, 72 h exposure
# Excerpt: as §1, §2
# HL-60/DOX = assay: MTT cytotoxicity test; type: cell-based, human; details: Homo sapiens, 72 h exposure
# Excerpt: as §1, §2
# HL-60 [1] = assay: MTT cytotoxicity test; type: cell-based, human; details: Homo sapiens, HL-60, 72 h exposure
# Excerpt: as §1, §2
# K-562 [2] = assay: MTT cytotoxicity test; type: cell-based, human; details: Homo sapiens, K562, K-562, 72 h exposure
# Excerpt: as §1, §2
# MDA-MB-231 [3] = assay: MTT cytotoxicity test; type: cell-based, human; details: Homo sapiens, MDA-MB-231, 72 h exposure
# Excerpt: as §1, §2
# [4] = tested on: human tumor (MDA-MB-231, EJ, K-562, HL-60 and HL-60/DOX) cell lines; assay: MTT cytotoxicity test, tumor cell line panel; type: cell-based; details: Homo sapiens; average IC50 of all chemo-sensitive tested tumor cell lines; read-out: x
# Excerpt: as §1, §2
# HL-60 [5] = assay: Antiproliferative test (NCI methodology); type: cell-based, human; details: for TGI: HL-60, total growth inhibition; for GI50: Homo sapiens, HL-60, MTT readout
# Excerpt: as §1
# (§3) The test was performed according the methodology of National Cancer Institute (NCI), USA [116]. Briefly, cells were seeded into 96-well plates in the same way as for an MTT test and after 24 h, the absorption of one plate of each cell line was measured as in the MTT assay described above, to represent a measurement of the cell population at the time of drug-addition (Tz). The rest of the plates were treated with the tested compounds and the experiment for them continued as the MTT-method. Using the absorbance measurements [(Tz, untreated control growth (C) and test growth in the present of the compounds (Ti)], the percentage growth is calculated at each of the tested concentrations of the compounds. Percentage growth inhibition (GI) is calculated as GI%=Ti−Tz/C−Tz×100 for concentrations for which Ti ≥ Tz. For concentrations in which Ti < Tz it is calculated as GI%=Ti−Tz/Tz×100 . Two dose parameters are calculated for each experimental agent. Growth inhibition of 50% (GI50) is calculated from Ti−Tz/C−Tz×100=50 . This is the drug concentration resulting in a 50% reduction in the net protein increase (as measured by MTT-test) in control cells during the drug incubation. The drug concentration resulting in total growth inhibition (TGI) is calculated from Ti = Tz.
# K-562 [6] = assay: Antiproliferative test (NCI methodology); type: cell-based, human; details: for GI50: Homo sapiens, K562, K-562, MTT readout; for TGI: K-562, total growth inhibition
# Excerpt: as §1, §3
# MDA-MB-231 [7] = assay: Antiproliferative test (NCI methodology); type: cell-based, human; details: for GI50: Homo sapiens, MDA-MB-231, MTT readout; for TGI: MDA-MB-231, total growth inhibition
# Excerpt: as §1, §3
# procaspase 9 = assay: Western blot, procaspase 9; type: cell-based, human; details: MDA-MB-231 and HL60/DOX
# Experimental: (§4) Next, the samples were lysed on ice with a buffer containing 100 mM Tris–HCl at pH 8.0, 4% SDS, 20% glycerol, 1% Na3VO4, 200 mM dithiothreitol (DTT) (Sigma-Aldrich, St. Louis, MO, USA) and protease inhibitor (Roche, Basel, Switzerland). Then the cell lysate was boiled for 15 min and centrifuged at 13,000 rpm for 10 min at 4 °C. Before DTT addition, aliquot samples of 10 μL were taken from the lysates. Their protein concentrations were determined using a BCA protein assay kit (ThermoFisher Scientific, Waltham, MA, USA) after dilution 5× with H2O. Subsequently, the samples were subjected to denaturing SDS-PAGE electrophoresis and then transferred to PVDF membrane (Santa Cruz Biotechnology, USA). After this, the blots were fixed with blocking solution (5% w/v nonfat dried milk powder, dissolved in TBS) and incubated with specific primary antibodies: mouse procaspase-9 (sc-17784), mouse Bcl-2 (C-2, sc-7382) and mouse β-actin (sc-8432). The incubation was either overnight at 4 °C or for 150 min at room temperature. After washing, the membranes were incubated for 45 min with horseradish peroxidase conjugated secondary goat anti-mouse antibody (sc-2005) or mouse IgG kappa antibody (sc-516102) (Santa Cruz Biotechnology, Santa Cruz, CA, USA). […] This densitometry analysis of the blots was calculated by Quantity One software version 4.6.9 (Bio-Rad Laboratories, Hercules, CA, USA). […]
# MRSA = details: growth of MRSA; cited from earlier work
# Bcl-2 = assay: Western blot, Bcl-2; type: cell-based, human; details: MDA-MB-231 and HL60/DOX
# Experimental: as §4
# [8] = tested on: NorA multidrug efflux pumps; parameters: method as in PMID 24119569; details: S. aureus; cited from earlier work
# [9] = tested on: Enterococcus faecalis (ATCC 29212); assay: MIC by broth microdilution; type: cell-based; details: ATCC29212, read-out: MIC
# Excerpt: (§5) The Gram-positive bacterial strains that were examined for susceptibility were: Staphylococcus aureus (ATCC 29213, American Type Cell Culture Collection, Manassas, VA, USA), Staphylococcus aureus—MRSA (NBIMCC 8327-resistant to methicillin and oxacillin, National Bulgarian Collection for Industrial Microorganisms and Cell Cultures, Sofia, Bulgaria), Enterococcus faecalis (ATCC 29212) and Streptococcus pyogenes (SAIMC 10535, Collection of the Stephan Angeloff Institute of Microbiology, Sofia, Bulgaria). The only Gram-negative bacterial strain used was Escherichia coli (ATCC 35218). Bacteria were maintained in Trypticase Soy Broth (TSB, Himedia, India) at 37 °C, aerobic conditions. For the experiments brain heart infusion (BHI) broth (#M210 HiMedia, Mumbai, India) was used for E. faecalis and S. pyogenes and Mueller Hinton broth (MHB, #M0405B) from Thermo Scientific-Oxoid (Basingstoke, UK)—for all other strains.
# (§6) BMD was performed according to the following protocol of ISO 20776/1-2006 [117]. A bacterial suspension with density of 10^8 CFU/mL (0.5 McFarland standard, OD600) was prepared from an overnight grown liquid bacterial culture homogenized over vortex and brought to a working bacterial suspension (WBS) with concentration of 5×10^5 CFU/mL by being diluted 200× with MHB or BHI broth and homogenized over vortex again. Two-fold serial dilutions of compounds 3–5 was prepared in 96-well round bottom plates to a volume of 50 μL and final range of concentrations 100–0.2 μg/mL. Stock solutions were dissolved in ethanol and MHB was used as diluent and as test for absence of contamination. Three wells were left as blank samples and 6 wells were left for control samples. An equivalent volume (50 μL) of the WBS was inoculated to each well in the aforementioned plates achieve final bacterial density of […] with the exception of the blank wells. After 18–24 h incubation under aerobic standardized conditions at 37 °C the plates were examined. […] Antibiotics dissolved in sterile distilled water were used as referent positive controls. They were penicillin G (PEN, #B0500000, Merck KGaA, Darmstadt, Germany) for E. faecalis and S. pyogenes, gentamicin (GEN, #15750-037, 50 mg/mL, Gibco, Paisley, UK) for all bacteria except S. pyogenes and ciprofloxacin (CIP, Ciproflav:10 mg/mL, Polfa S.A. Warsaw Pharmaceutical Works, Starogard Gdanski, Poland) for E. faecalis. The range of concentrations were 0.004–2 mg/L for PEN, 0.008–4 mg/L for GEN and 0.005–2 mg/L for CIP. The requirements of EUCAST (European Committee on Antimicrobial Susceptibility Testing) for their MICs were followed for discussing the results. In the end the plates which contained active agents were subjected to assessment of the dehydrogenase activity of the bacteria.
# [10] = tested on: Staphylococcus aureus (ATCC 29213); assay: MIC by broth microdilution; type: cell-based; details: ATCC29213, Staphylococcus aureus, read-out: MIC
# Excerpt: as §5, §6
# [11] = tested on: Staphylococcus aureus—MRSA (NBIMCC 8327); assay: MIC by broth microdilution; type: cell-based; details: read-out: MIC
# Excerpt: as §5, §6
# [12] = tested on: Streptococcus pyogenes (SAIMC 10535); assay: MIC by broth microdilution; type: cell-based; details: read-out: MIC
# Excerpt: as §5, §6
# HL-60 cells = details: cited from earlier work
# MDA-MB-231 cells = details: cited from earlier work
# K-562 cells = details: cited from earlier work
compound,measurement,setting,value
"CC(C)=CCC/C(C)=C/COc1cc(O)cc(O)c1C(=O)C(C)C [Compound 1, (E)-1-[2-{(3,7-dimethylocta-2,6-dien-1-yl)oxy}-4,6-dihydroxyphenyl]-2-methylpropan-1-one]",IC50,EA.hy926,6.73 ± 0.9 µM
same,IC50,EJ,7.01 ± 1.3 µM
same,IC50,HEK-293,14.7 ± 2.2 µM
same,IC50,HL-60/DOX,5.59 ± 0.4 µM
same,IC50,HL-60 [1],16.6 ± 3.3 µM
same,IC50,K-562 [2],9.05 ± 0.8 µM
same,IC50,MDA-MB-231 [3],24.9 ± 3.2 µM
same,IC50,[4],14.5 µM
same,TGI,HL-60 [5],9.39 µM
same,GI50,HL-60 [5],3.79 µM
same,GI50,K-562 [6],5.2 µM
same,TGI,K-562 [6],11.90 µM
same,GI50,MDA-MB-231 [7],10.4 µM
same,TGI,MDA-MB-231 [7],18.56 µM
same,degradation of the precursor caspase 9 (in words),procaspase 9,not any observed decrease
same,MIC50,MRSA,1.14 mg/L
"CC[C@H](C)C(=O)c1c(O)cc(O)cc1OC/C=C(\C)CCC=C(C)C [Compound 2, olympicin A]",IC50,EA.hy926,34 ± 6.5 µM
same,IC50,EJ,5.61 ± 0.5 µM
same,IC50,HEK-293,22.5 ± 3.8 µM
same,IC50,HL-60/DOX,1.96 ± 0.2 µM
same,IC50,HL-60 [1],13.8 ± 1.8 µM
same,IC50,K-562 [2],22.9 ± 4 µM
same,IC50,MDA-MB-231 [3],2.95 ± 0.4 µM
same,IC50,[4],11.3 µM
same,TGI,HL-60 [5],81.63 µM
same,GI50,HL-60 [5],72.6 µM
same,GI50,K-562 [6],20.3 µM
same,TGI,K-562 [6],23.49 µM
same,GI50,MDA-MB-231 [7],1.07 µM
same,TGI,MDA-MB-231 [7],2.54 µM
same,degradation of the antiapoptotic protein Bcl-2 (in words),Bcl-2,degradation
same,IC50,MRSA,1.80 mg/L
same,inhibition of efflux from NorA multidrug efflux pumps,[8],inhibited the efflux
"COc1cc([C@@H]2c3cc4c(cc3[C@@H](O[C@@H]3O[C@@H]5CO[C@@H](C)O[C@H]5[C@H](O)[C@H]3O)[C@H]3COC(=O)[C@H]23)OCO4)cc(OC)c1O [Etoposide, reference compound]",IC50,EJ,5.4 ± 1.3 µM
same,IC50,HL-60/DOX,42.3 ± 2.7 µM
same,IC50,HL-60 [1],1.27 ± 0.4 µM
same,IC50,K-562 [2],2.34 ± 0.7 µM
same,IC50,MDA-MB-231 [3],8.42 ± 1.3 µM
"CNC(C)C1CCC(N)C(OC2C(N)CC(N)C(OC3OCC(C)(O)C(NC)C3O)C2O)O1 (centres unmarked) [Gentamicin, gentamicin, reference compound]",MIC,[9],8 µg/mL and 16.8 µM
same,MIC,[10],0.25 µg/mL and 0.52 µM
same,MIC,[11],0.25 µg/mL and 0.52 µM
"CC1(C)S[C@@H]2[C@H](NC(=O)Cc3ccccc3)C(=O)N2[C@H]1C(=O)O [Penicillin, penicillin G, reference compound]",MIC,[9],2.5 µg/mL and 7.48 µM
same,MIC,[12],0.08 µg/mL and 0.24 µM
Hyperisampsin M,IC50,HL-60 cells,1400 nM
hyperatomarin,IC50,MDA-MB-231 cells,860 nM
hyperbeanol B,IC50,K-562 cells; K-562 cells,17 µM
hyperbeanol D,IC50,K-562 cells; K-562 cells,21 µM
hyperforin,IC50,K-562 cells; K-562,3.2 µM
hyperisampsin J,IC50,HL-60 cells,560 nM
hyphenrone R,IC50,HL-60 cells,3300 nM
